# Assay results taken from US8143212B2 (Vicuron Pharmaceuticals Inc., priority 2002, dated 2012).
# Like-named read-outs stand apart in the source and are kept apart here.
# Tests used:
# [1] = system: B subtilis; test: MIC, microbiological activity (Table 3); format: cell-based; conditions: L 102 B subtilis ATCC; read-out: MIC
# [2] = rat, in vivo
# Experimental: (§2) Excreta and more than 40 different tissues were collected through 70 days post-administration, and the tissue distribution and pharmacokinetics of drug-derived radioactivity were determined.
# Rats (3 per time-point) were euthanized at 12, 24, 48, 72, 96, 120, 144, 168, 336, 840, 1176 and 1680 hours post dose for collection of blood, plasma, and tissues (including carcass). All samples were analyzed by LSC.
# As part of the QTD studies, bile samples were collected from bile duct cannulated rats (4 animals) through 384 h (16 days) post-dose.
# [3] = system: S. pneumoniae; test: Murine thigh-infection model (time kill, dosing regimen, PK/PD, neutrophils; Tables 31-33); format: in vivo, mice; conditions: for 1 log kill mg/kg / 2 log kill mg/kg: total dose over 6 days
# Experimental: Each point represents the mean of 4 thighs. Five dose levels, ranging 16-fold were used.
# Five different doses (two-fold increases) were used. […] Each point represents the mean of 4 thighs.
# Each point represents the mean of four thighs.
# Each point represents the mean value from 4 thighs. The static dose, and the doses associated with a 1 and 2 log kill were calculated from the parameters estimated by non-linear regression using the Hill equation.
# [4] = system: C albicans; test: MIC, microbiological activity (Table 3); format: cell-based; conditions: L 145 C albicans SKF2270; read-out: MIC
# [5] = system: P vulgaris; test: MIC, microbiological activity (Table 3); format: cell-based; conditions: L 79 P vulgaris; read-out: MIC
# [6] = system: S. aureus; test: MIC by NCCLS microdilution of study organisms (Table 29); format: cell-based
# Experimental: (§1) MICs were determined in MHB by standard NCCLS microdilution techniques. […] All MICs were performed at least in duplicate.
# [7] = system: S. pneumoniae; test: as above; format: cell-based; conditions: Streptococcus pneumoniae
# Experimental: as §1
# [8] = rat, in vivo; remark: listed apart in the source
# Experimental: as §2
# Following dose administration, urine and feces were collected at 24 hour intervals to 14, 36, and 70 days after the dose (3 rats/final collection time). Water and methanol cage washes were also collected. Carcasses were analyzed at the end of the collection period. All samples were analyzed for total radioactivity content by liquid scintillation counting (LSC).
# [9] = molecular target: human albumin (Homo sapiens, UniProt P02768); conditions: pH 7.4
# Chain of human albumin (P02768 25-609): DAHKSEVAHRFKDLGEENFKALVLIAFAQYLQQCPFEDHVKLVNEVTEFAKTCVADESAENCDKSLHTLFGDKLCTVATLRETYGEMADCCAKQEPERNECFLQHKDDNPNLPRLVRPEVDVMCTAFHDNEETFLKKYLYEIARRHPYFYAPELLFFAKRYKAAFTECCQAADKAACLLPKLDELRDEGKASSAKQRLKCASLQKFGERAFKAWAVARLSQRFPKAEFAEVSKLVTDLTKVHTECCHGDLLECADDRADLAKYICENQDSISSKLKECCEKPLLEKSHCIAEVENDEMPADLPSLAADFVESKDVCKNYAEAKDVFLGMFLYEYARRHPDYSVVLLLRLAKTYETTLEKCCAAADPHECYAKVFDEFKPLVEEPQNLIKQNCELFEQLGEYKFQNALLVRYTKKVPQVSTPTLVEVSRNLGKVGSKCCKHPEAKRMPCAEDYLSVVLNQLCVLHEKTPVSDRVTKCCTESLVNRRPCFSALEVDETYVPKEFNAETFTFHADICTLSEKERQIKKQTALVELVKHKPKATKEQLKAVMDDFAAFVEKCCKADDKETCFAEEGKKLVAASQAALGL
# Experimental: Integrated heat effects, after correction for heats of dilution, were analyzed by non-linear regression using a simple single-site binding model with the standard Microcal ORIGIN software package. Raw data (μcal/sec) for each injection were integrated to give the total heat effect per addition, then divided by amount of injectant to give kcal/mole of injectant. The same integration was applied for control dilution effects, and this was subtracted from the actual titration data. This provided a differential of the binding curve in which the extent of binding is proportional to the total heat liberated (or absorbed). This was then analyzed by non-linear regression methods in terms of various standard binding models. The simplest model assumes simple non-competitive binding equilibrium, and gives three parameters:
# [10] = Mean ± SD of S. pneumoniae strains, q 24 h regimen
# [11] = Mean ± SD of S. pneumoniae strains, q 72 h regimen
# [12] = Staphylococcus aureus, MRSA, S. aureus strain MRSA
# [13] = Staphylococcus aureus, S. aureus strain Smith
smiles,measurement,setting,value
CN[C@H]1C(=O)N[C@@H]2Cc3ccc(cc3)Oc3cc4cc(c3O[C@@H]3O[C@H](C(=O)O)[C@@H](O)[C@H](O)[C@H]3NC(=O)CCCCCCCCC(C)C)Oc3ccc(cc3Cl)[C@@H](O)[C@@H]3NC(=O)[C@H](NC(=O)[C@@H]4NC(=O)[C@@H](NC2=O)c2cc(cc(O)c2Cl)Oc2cc1ccc2O)c1ccc(O)c(c1)-c1c(O[C@H]2O[C@H](CO)[C@@H](O)[C@H](O)[C@@H]2O)cc(O)cc1[C@@H](C(=O)NCCCN(C)C)NC3=O [Dalbavancin],MIC,[1],< 0.03 µg/mL
same,blood to plasma ratio of drug-derived radioactivity,"[2]; male, Sprague-Dawley",< 1
same,recovered radioactivity in any single tissue,"[2]; male, Sprague-Dawley, 5 days",< 5 % of the dose
same,administered radioactivity retained in carcass,"[2]; male, Sprague-Dawley, 70 days",2.34%
same,time to maximum concentration (Cmax) in most tissues,[2],≤ 24 h
same,1 Log Kill f24AUC/MIC,[3]; [10],21 ± 7.4
same,1 Log Kill mg/kg/24 h,[3]; [10],1.1 ± 0.47 mg/kg/24 h
same,2 Log Kill f24AUC/MIC,[3]; [10],24.3 ± 8.2
same,2 Log Kill mg/kg/24 h,[3]; [10],1.23 ± 0.52 mg/kg/24 h
same,Static Effect f24AUC/MIC,[3]; [10],17.6 ± 6.9
same,Static Effect mg/kg/24 h,[3]; [10],0.91 ± 0.44 mg/kg/24 h
same,1 Log Kill f24AUC/MIC,[3]; [11],9.0 ± 5.8
same,1 Log Kill mg/kg/24 h,[3]; [11],0.93 ± 0.24 mg/kg/24 h
same,2 Log Kill f24AUC/MIC,[3]; [11],16.6 ± 12.3
same,2 Log Kill mg/kg/24 h,[3]; [11],1.13 ± 0.36 mg/kg/24 h
same,Static Effect f24AUC/MIC,[3]; [11],7.2 ± 4.5
same,Static Effect mg/kg/72 h,[3]; [11],0.77 ± 0.18 mg/kg/72 h
same,1 Log Kill f24AUC/MIC,"[3]; SP1199, q 24 h regimen",19.4
same,1 Log Kill mg/kg/24 h,"[3]; SP1199, q 24 h regimen",0.49 mg/kg/24 h
same,2 Log Kill f24AUC/MIC,"[3]; SP1199, q 24 h regimen",22.7
same,2 Log Kill mg/kg/24 h,"[3]; SP1199, q 24 h regimen",0.57 mg/kg/24 h
same,Static Effect f24AUC/MIC,"[3]; SP1199, q 24 h regimen",16.0
same,Static Effect mg/kg/24 h,"[3]; SP1199, q 24 h regimen",0.40 mg/kg/24 h
same,1 Log Kill f24AUC/MIC,"[3]; SP1199, q 72 h regimen",12.1
same,1 Log Kill mg/kg/24 h,"[3]; SP1199, q 72 h regimen",0.85 mg/kg/24 h
same,2 Log Kill f24AUC/MIC,"[3]; SP1199, q 72 h regimen",35.3
same,2 Log Kill mg/kg/24 h,"[3]; SP1199, q 72 h regimen",0.99 mg/kg/24 h
same,Static Effect f24AUC/MIC,"[3]; SP1199, q 72 h regimen",10.3
same,Static Effect mg/kg/72 h,"[3]; SP1199, q 72 h regimen",0.72 mg/kg/72 h
same,1 Log Kill f24AUC/MIC,"[3]; SP1293, q 24 h regimen",21.7
same,1 Log Kill mg/kg/24 h,"[3]; SP1293, q 24 h regimen",0.55 mg/kg/24 h
same,2 Log Kill f24AUC/MIC,"[3]; SP1293, q 24 h regimen",25.9
same,2 Log Kill mg/kg/24 h,"[3]; SP1293, q 24 h regimen",0.65 mg/kg/24 h
same,Static Effect f24AUC/MIC,"[3]; SP1293, q 24 h regimen",17.4
same,Static Effect mg/kg/24 h,"[3]; SP1293, q 24 h regimen",0.44 mg/kg/24 h
same,1 Log Kill f24AUC/MIC,"[3]; SP1293, q 72 h regimen",18
same,1 Log Kill mg/kg/24 h,"[3]; SP1293, q 72 h regimen",1.28 mg/kg/24 h
same,2 Log Kill f24AUC/MIC,"[3]; SP1293, q 72 h regimen",23.8
same,2 Log Kill mg/kg/24 h,"[3]; SP1293, q 72 h regimen",1.68 mg/kg/24 h
same,Static Effect f24AUC/MIC,"[3]; SP1293, q 72 h regimen",14.1
same,Static Effect mg/kg/72 h,"[3]; SP1293, q 72 h regimen",1.01 mg/kg/72 h
same,1 Log Kill f24AUC/MIC,"[3]; SP1325, q 24 h regimen",31.8
same,1 Log Kill mg/kg/24 h,"[3]; SP1325, q 24 h regimen",1.6 mg/kg/24 h
same,2 Log Kill f24AUC/MIC,"[3]; SP1325, q 24 h regimen",34.5
same,2 Log Kill mg/kg/24 h,"[3]; SP1325, q 24 h regimen",1.73 mg/kg/24 h
same,Static Effect f24AUC/MIC,"[3]; SP1325, q 24 h regimen",29.0
same,Static Effect mg/kg/24 h,"[3]; SP1325, q 24 h regimen",1.46 mg/kg/24 h
same,1 Log Kill f24AUC/MIC,"[3]; SP1325, q 72 h regimen",8.8
same,1 Log Kill mg/kg/24 h,"[3]; SP1325, q 72 h regimen",0.99 mg/kg/24 h
same,2 Log Kill f24AUC/MIC,"[3]; SP1325, q 72 h regimen",17.6
same,2 Log Kill mg/kg/24 h,"[3]; SP1325, q 72 h regimen",1.16 mg/kg/24 h
same,Static Effect f24AUC/MIC,"[3]; SP1325, q 72 h regimen",6.0
same,Static Effect mg/kg/72 h,"[3]; SP1325, q 72 h regimen",0.83 mg/kg/72 h
same,1 Log Kill f24AUC/MIC,"[3]; SP1329, q 24 h regimen",23.5
same,1 Log Kill mg/kg/24 h,"[3]; SP1329, q 24 h regimen",1.18 mg/kg/24 h
same,2 Log Kill f24AUC/MIC,"[3]; SP1329, q 24 h regimen",26.7
same,2 Log Kill mg/kg/24 h,"[3]; SP1329, q 24 h regimen",1.45 mg/kg/24 h
same,Static Effect f24AUC/MIC,"[3]; SP1329, q 24 h regimen",18.0
same,Static Effect mg/kg/24 h,"[3]; SP1329, q 24 h regimen",0.90 mg/kg/24 h
same,1 Log Kill f24AUC/MIC,"[3]; SP1396, q 72 h regimen",4.3
same,1 Log Kill mg/kg/24 h,"[3]; SP1396, q 72 h regimen",0.61 mg/kg/24 h
same,2 Log Kill f24AUC/MIC,"[3]; SP1396, q 72 h regimen",4.8
same,2 Log Kill mg/kg/24 h,"[3]; SP1396, q 72 h regimen",0.69 mg/kg/24 h
same,Static Effect f24AUC/MIC,"[3]; SP1396, q 72 h regimen",4.0
same,Static Effect mg/kg/72 h,"[3]; SP1396, q 72 h regimen",0.52 mg/kg/72 h
same,1 log kill mg/kg,"[3]; SP10813, q 12 h",2.8 mg/kg
same,2 log kill mg/kg,"[3]; SP10813, q 12 h",3.5 mg/kg
same,1 log kill mg/kg,"[3]; SP10813, q 24 h",1.54 mg/kg
same,2 log kill mg/kg,"[3]; SP10813, q 24 h",1.75 mg/kg
same,1 Log Kill f24AUC/MIC,"[3]; SP10813, q 24 h regimen",8.7
same,1 Log Kill mg/kg/24 h,"[3]; SP10813, q 24 h regimen",1.54 mg/kg/24 h
same,2 Log Kill f24AUC/MIC,"[3]; SP10813, q 24 h regimen",9.9
same,2 Log Kill mg/kg/24 h,"[3]; SP10813, q 24 h regimen",1.75 mg/kg/24 h
same,Static Effect f24AUC/MIC,"[3]; SP10813, q 24 h regimen",7.5
same,Static Effect mg/kg/24 h,"[3]; SP10813, q 24 h regimen",1.34 mg/kg/24 h
same,1 log kill mg/kg,"[3]; SP10813, q 36 h",1.53 mg/kg
same,2 log kill mg/kg,"[3]; SP10813, q 36 h",1.81 mg/kg
same,1 log kill mg/kg,"[3]; SP10813, q 72 h",0.77 mg/kg
same,2 log kill mg/kg,"[3]; SP10813, q 72 h",0.82 mg/kg
same,1 Log Kill f24AUC/MIC,"[3]; SP10813, q 72 h regimen",1.6
same,1 Log Kill mg/kg/24 h,"[3]; SP10813, q 72 h regimen",0.77 mg/kg/24 h
same,2 Log Kill f24AUC/MIC,"[3]; SP10813, q 72 h regimen",1.6
same,2 Log Kill mg/kg/24 h,"[3]; SP10813, q 72 h regimen",0.82 mg/kg/24 h
same,Static Effect f24AUC/MIC,"[3]; SP10813, q 72 h regimen",1.4
same,Static Effect mg/kg/72 h,"[3]; SP10813, q 72 h regimen",0.71 mg/kg/72 h
same,drop in cfu,"[3]; all strains, 6 day study",> 4 log10
same,free drug 24 h AUC/MIC associated with a static effect,[3]; every 24 h dosing,17.6±6.9
same,free drug AUC/MIC required for efficacy,"[3]; over the 6 days of therapy, net static effect, 1 or 2 log kill",~100
same,extent of killing,"[3]; single doses, highest doses studied",> 2 log
same,MIC,[4],> 32 µg/mL
same,MIC,[5],> 32 µg/mL
same,MBC,[6]; S. aureus strain 25923,0.25 µg/mL
same,MIC,[6]; S. aureus strain MRSA,0.06 µg/mL
same,MBC,[6]; S. aureus strain Smith,0.25 µg/mL
same,MIC,[6]; S. aureus strain Smith,0.12 µg/mL
same,MBC,[6]; [12],0.25 µg/mL
same,MIC,[6]; [12],0.12 µg/mL
same,MBC,"[6]; Staphylococcus aureus, S. aureus strain 25923",0.5 µg/mL
same,MIC,"[6]; Staphylococcus aureus, S. aureus strain 31005",0.06 µg/mL
same,MBC,"[6]; Staphylococcus aureus, S. aureus strain 33591",0.25 µg/mL
same,MIC,"[6]; Staphylococcus aureus, S. aureus strain 307109",0.06 µg/mL
same,MBC,[6]; [13],0.5 µg/mL
same,MIC,[6]; [13],0.06 µg/mL
same,MIC,"[6]; Staphylococcus aureus, read-out: MICs, six S. aureus isolates",0.06 to 0.12 µg/mL
same,MIC,[7]; S. pneumoniae SP1396,0.008 µg/mL
same,MIC,"[7]; S. pneumoniae strain 1199, read-out: MIC",0.004 µg/mL
same,MIC,"[7]; S. pneumoniae strain 1293, read-out: MIC",0.004 µg/mL
same,MIC,"[7]; S. pneumoniae strain 1325, read-out: MIC",0.008 µg/mL
same,MIC,"[7]; S. pneumoniae strain 1329, read-out: MIC",0.008 µg/mL
same,MIC,"[7]; S. pneumoniae strain 10813, read-out: MIC",0.03 µg/mL
same,MIC,"[7]; five pneumococcal organisms, read-out: MICs",0.004 to 0.03 µg/mL
same,dose remaining in the carcass,"[8]; male, Sprague-Dawley, 1680 h",4.5 % of the dose
same,share of excreted radioactivity eliminated in feces,"[8]; iv, 20 mg/kg",⅓
same,share of excreted radioactivity eliminated in urine,"[8]; iv, 20 mg/kg",⅔
same,Calculated percent Binding,[9]; 1 μM,98.8%
same,Calculated percent Binding,[9]; 10 μM,98.8%
same,Calculated percent Binding,[9]; 100 μM,98.7%
same,Calculated percent Binding,[9]; 165 μM,98.6%
same,Calculated percent Binding,[9]; 250 μM,98.5%
same,Calculated percent Binding,[9]; 500 μM,98.0%
